From PubChem BioAssay (NCI) come the findings set out here.

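Interpolation was linear, between the two tested concentrations surrounding the appropriate level; five concentrations were tested over 48 hours in 96-well plates. GI50 is the concentration that inhibits growth by half. TGI: total growth inhibition.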

Some test systems named below: OVCAR-4 ovarian; SNB-19 CNS; K-562 leukemia; DU-145 prostate; SR leukemia; A498 renal; SF-268 CNS; SNB-75 CNS.
Holding throughout (assay): NCI tumour cell line growth inhibition, 48 h

In the case of `O=C(CN1C(=O)S/C(=C\C(Cl)=C\c2ccccc2)C1=O)NCCc1ccc(O)cc1`, the GI50 was 2.61 µM in the assay with OVCAR-4 ovarian; 2.54 µM in the assay with SNB-19 CNS; 2.28 µM in the assay on K-562 leukemia; 1.72 µM in the assay on DU-145 prostate; 0.955 µM in the assay on SR leukemia; 1.65 µM in the assay with A498 renal. Also, the GI50 with SF-268 CNS was 2.28 µM; in the assay on SNB-75 CNS, 1.05 µM. The TGI with OVCAR-4 ovarian is 11.9 µM; with SNB-19 CNS, 9.46 µM; in the assay with K-562 leukemia, more than 100 µM; in the assay with DU-145 prostate it was 3.55 µM; with SR leukemia it was more than 100 µM; in the assay on A498 renal it was 7.75 µM. Further, the results for the TGI in the assay on SF-268 CNS and with SNB-75 CNS were 6.63 µM and 6.64 µM, respectively.

`C=CC[C@@H]1/C=C(\C)C[C@H](C)C[C@H](OC)[C@H]2O[C@@](O)(C(=O)C(=O)N3CCCC[C@H]3C(=O)O[C@H](/C(C)=C/C3CC[C@@H](O)[C@H](OC)C3)[C@H](C)[C@@H](O)CC1=O)[C@H](C)C[C@@H]2OC` (stereo partly specified): the GI50 in the assay on OVCAR-4 ovarian is 13.9 µM; in the assay on SNB-19 CNS, 15.6 µM; with K-562 leukemia it was 18.7 µM; with DU-145 prostate, 16.1 µM; in the assay on SR leukemia, 14.1 µM; with A498 renal, 9.95 µM. Besides, the figures for the GI50 in the assay on SF-268 CNS and with SNB-75 CNS were 13.8 µM and 12.3 µM, respectively. For the same molecule, the TGI with OVCAR-4 ovarian is 27.2 µM; in the assay on SNB-19 CNS, 30.4 µM; in the assay with K-562 leukemia it was 52 µM; with DU-145 prostate it was 30.2 µM; with SR leukemia it was 39.8 µM; in the assay with A498 renal it was 24.3 µM. Also, the TGI in the assay with SF-268 CNS is 27.3 µM; in the assay on SNB-75 CNS it was 25.1 µM.

As to `CS(=O)(=O)c1ccc(Oc2cc(F)cc(C#N)c2)c2c1[C@H](O)C(F)(F)C2`, the GI50 with OVCAR-4 ovarian, in the assay with SNB-19 CNS, in the assay with K-562 leukemia, in the assay with DU-145 prostate, in the assay with SR leukemia and with A498 renal was more than 100 µM throughout. Besides, the GI50 in the assay on SF-268 CNS and in the assay on SNB-75 CNS was more than 100 µM each time. The TGI in the assay with OVCAR-4 ovarian, with SNB-19 CNS, with K-562 leukemia, in the assay with DU-145 prostate, in the assay on SR leukemia and with A498 renal was more than 100 µM each time. The TGI in the assay with SF-268 CNS and with SNB-75 CNS was more than 100 µM each time.

Take `CCCCCCCCCCCCCCCCCC(=O)OCC(COC1OC(CS(=O)(=O)O)C(O)C(O)C1O)OC(=O)CCCCCCCCCCCCCCCCC` (stereo unspecified): the TGI was more than 100 µM with OVCAR-4 ovarian; more than 100 µM in the assay on SNB-19 CNS; more than 100 µM in the assay with K-562 leukemia; more than 100 µM in the assay with DU-145 prostate; 4.42 µM in the assay on SR leukemia; more than 100 µM in the assay on A498 renal. In addition, the TGI in the assay on SF-268 CNS and in the assay with SNB-75 CNS was more than 100 µM in each case.

Turning to `COc1ccc(OC)c(/C=C2\COc3ccc(O)c(O)c3C2=O)c1`, the GI50 in the assay with OVCAR-4 ovarian was 2.58 µM; in the assay on SNB-19 CNS, 3.09 µM; with K-562 leukemia, 2.17 µM; in the assay with DU-145 prostate, 2.27 µM; in the assay with SR leukemia it was 1.36 µM; in the assay with A498 renal, 11.2 µM. Further, the values for the GI50 in the assay with SF-268 CNS and in the assay with SNB-75 CNS were 2.19 µM and 3.72 µM, respectively. The TGI is 14.5 µM in the assay on OVCAR-4 ovarian; 11.1 µM in the assay with SNB-19 CNS; more than 100 µM in the assay on K-562 leukemia; 7.28 µM with DU-145 prostate; more than 100 µM in the assay on SR leukemia; 23.6 µM in the assay on A498 renal. In addition, the TGI in the assay on SF-268 CNS turned out to be 10.8 µM; with SNB-75 CNS, 18.3 µM.

Regarding `CCN(CC)CCCC(Cc1ccccc1)Nc1c2ccc(Cl)cc2nc2ccc(OC)cc12` (stereo unspecified), the GI50 was 2.15 µM in the assay with OVCAR-4 ovarian; 2.56 µM with SNB-19 CNS; 1.07 µM in the assay with K-562 leukemia; 5 µM in the assay on DU-145 prostate; 1.43 µM in the assay with SR leukemia; 1.88 µM in the assay with A498 renal. For the same molecule, the GI50 in the assay on SF-268 CNS was 2.14 µM; with SNB-75 CNS, 1.62 µM. For the same molecule, the TGI with OVCAR-4 ovarian is 6.2 µM; in the assay on SNB-19 CNS, 7.17 µM; in the assay with K-562 leukemia, 2.89 µM; in the assay with DU-145 prostate, 18.3 µM; in the assay with SR leukemia, 4.25 µM; in the assay on A498 renal it was 5.09 µM. Besides, the TGI with SF-268 CNS was determined as 5.84 µM; with SNB-75 CNS, 3.65 µM.

In the case of `Clc1ccc(C2=NN[C@H](c3cn(-c4ccccc4)nc3-c3ccccc3)C2)cc1`, the GI50 was 4.87 µM with OVCAR-4 ovarian; 7.08 µM in the assay with SNB-19 CNS; 4.8 µM in the assay on K-562 leukemia; 6.47 µM in the assay on DU-145 prostate; 11.4 µM with SR leukemia; 2.93 µM with A498 renal. Moreover, the GI50 is 5.71 µM in the assay on SF-268 CNS and 2.15 µM with SNB-75 CNS. Also, the TGI with OVCAR-4 ovarian is 34.3 µM; in the assay with SNB-19 CNS it was 24.8 µM; with K-562 leukemia, more than 100 µM; with DU-145 prostate, 28.2 µM; with SR leukemia, more than 100 µM; in the assay on A498 renal, 8.77 µM. The TGI with SF-268 CNS stood at 21.2 µM; in the assay on SNB-75 CNS it was 5.29 µM.

`N=c1n(Cc2ccccc2)c(N)cc(=O)n1Cc1ccccc1`: the GI50 in the assay on OVCAR-4 ovarian is 2.41 µM; in the assay with SNB-19 CNS it was 5.04 µM; with K-562 leukemia it was 3.82 µM; in the assay on DU-145 prostate it was 2.28 µM; in the assay with SR leukemia it was 2.28 µM; in the assay with A498 renal it was 5.04 µM. Further, the GI50 is 1.37 µM with SF-268 CNS and 3.08 µM with SNB-75 CNS. Also, the TGI with OVCAR-4 ovarian was 10.5 µM; in the assay on SNB-19 CNS it was 18.2 µM; in the assay with K-562 leukemia, more than 100 µM; in the assay with DU-145 prostate, 6.47 µM; with SR leukemia it was 7.53 µM; in the assay with A498 renal, 47.5 µM. Moreover, the results for the TGI with SF-268 CNS and with SNB-75 CNS were 3.86 µM and 16.1 µM, respectively.

For `COc1ccc(-c2nn(-c3cccc(NC(=O)c4cccc(C(F)(F)F)c4)c3)cc2-c2ccncc2)cc1Cl`, the GI50 in the assay with OVCAR-4 ovarian was 6.24 µM; in the assay on SNB-19 CNS it was 5.7 µM; in the assay on K-562 leukemia it was 0.837 µM; in the assay on DU-145 prostate, 4.36 µM; in the assay with SR leukemia it was 0.605 µM; in the assay on A498 renal it was 1.03 µM. For the same molecule, the GI50 in the assay with SF-268 CNS was 4.08 µM; in the assay on SNB-75 CNS, 1.17 µM. Besides, the TGI is more than 100 µM in the assay with OVCAR-4 ovarian; more than 100 µM with SNB-19 CNS; more than 100 µM with K-562 leukemia; more than 100 µM in the assay on DU-145 prostate; 5.44 µM in the assay on SR leukemia; 4.68 µM in the assay with A498 renal. Further, the results for the TGI in the assay with SF-268 CNS and in the assay with SNB-75 CNS were more than 100 µM and 4.07 µM, respectively.
